Source: US7074798B2, “Xanthine derivative and DPPIV inhibitor” (Eisai Co., Ltd, priority 2002, dated 2006)
Structures can show the parent of a compound that is named as a salt.

The compounds below were run on male C57BL/6N mouse (assay: Effect on glucose tolerance of normal mouse (oral glucose loading)). Details: 2 h, 0.3 mg/kg oral, 30 min before glucose 2 g/kg, AUC0-120, 0.5% MC = 100%, NVP DPP728 10 mg/kg = 0%, lower = better, read-out: Improvement degree of glucose tolerance.
Assay type: in vivo
Procedure: Effect on Glucose Tolerance of Normal Mouse
male C57BL/6N mouse (purchased from CHARLES RIVER JAPAN, INC.)
A suspension of the test compound and NVP DPP728 or 0.5% MC solution (solvent control group) were orally administered at a dose of 10 mL/kg, and after 30 minutes, glucose solution was orally administered at a dose of 10 mL/kg. Glucose was orally administered at a dose of 2 g/kg.
Immediately before the administration of the test substance and NVP DPP728, immediately before the administration of the glucose solution and at 30 minutes, 60 minutes, and 120 minutes after the administration, a tail vein of the mouse was injured to slightly bleed by a razor under no anesthesia. 10 μl of blood was collected and was immediately mixed with 0.6M perchloric acid (140 μl). Glucose in the supernatant obtained by centrifugation (1500 g, 10 minutes, 4° C., refrigerated centrifuge GS-6KR, Beckman Instruments, Inc.) was measured using Glucose CII-Test Wako (Wako Pure Chemical Industries, Ltd.).
Area under the curve of blood glucose level-time (AUC0-120; Area Under the Curve) from the time of administration of glucose to 120 minutes after administration was calculated for respective administration groups, i.e., 0.5% MC solution, NVP DPP728, and the test compounds. Taking the AUC0-120 of the 0.5% MC solution administration group as 100% and the AUC0-120 of NVP DPP728 (10 mg/kg) administration group as 0%, the improvement degree of the glucose tolerance of a test compound was calculated using the following formula: Improvement degree of the glucose tolerance (%)=(AUC0-120 of the test compound−AUC0-120 of the NVP DPP728 (10 mg/kg) administration group)/(AUC0-120 of the 0.5% MC solution administration group−AUC0-120 of the NVP DPP728 (10 mg/kg) administration group)×100. • The lower the % value, the greater the improvement degree of the glucose tolerance will be.

Work on CC#CCn1c(N2CCNCC2)nc2c1c(=O)n(CC(=O)c1ccccc1)c(=O)n2C [Example 30, 7-(2-Butynyl)-3-methyl-1-(2-oxo-2-phenylethyl)-8-(piperazin-1-yl)-3,7-dihydropurine-2,6-dione trifluoroacetate] yielded a response vs control in vivo at 0.3 mg/kg of 49.4%.

Same assay, conditions: 2 h, 1 mg/kg oral, 30 min before glucose 2 g/kg, AUC0-120, 0.5% MC = 100%, NVP DPP728 10 mg/kg = 0%, lower = better, read-out: Improvement degree of glucose tolerance

Point of comparison: CC#CCn1c(N2CCNCC2)nc2c1c(=O)n(CC(=O)c1ccccc1)c(=O)n2C [Example 30, 7-(2-Butynyl)-3-methyl-1-(2-oxo-2-phenylethyl)-8-(piperazin-1-yl)-3,7-dihydropurine-2,6-dione trifluoroacetate], response vs control in vivo at 1 mg/kg -14.3%. Against it:
- CC#CCn1c(N2CCNCC2)nc2c1c(=O)[nH]c(=O)n2C [Example 14, 7-(2-Butynyl)-3-methyl-8-(piperazin-1-yl)-3,7-dihydropurine-2,6-dione] — higher, 41.9%
- CC#CCn1c(N2CCNCC2)nc2c1c(=O)n(Cc1ccccc1C#N)c(=O)n2C [Example 39, 2-[7-(2-Butynyl)-3-methyl-2,6-dioxo-8-(piperazin-1-yl)-2,3,6,7-tetrahydropurin-1-ylmethyl]-benzonitrile trifluoroacetate] — higher, 45.5%
- C=Cc1ccccc1-n1c(N2CCNCC2)nc2c1c(=O)[nH]c(=O)n2C [Example 174, 7-(2-Vinylphenyl)-3-methyl-8-(piperazin-1-yl)-3,7-dihydropurine-2,6-dione] — higher, 24.3%

Same assay, conditions: 2 h, 3 mg/kg oral, 30 min before glucose 2 g/kg, AUC0-120, 0.5% MC = 100%, NVP DPP728 10 mg/kg = 0%, lower = better, read-out: Improvement degree of glucose tolerance

Point of comparison: CC#CCn1c(N2CCNCC2)nc2c1c(=O)n(C)c(=O)n2CCC [Example 243, 7-(2-Butynyl)-3-propyl-1-methyl-8-(piperazin-1-yl)-3,7-dihydropurine-2,6-dione trifluoroacetate], response vs control in vivo at 3 mg/kg 8.4%. Against it:
- CC#CCn1c(N2CCNCC2)nc2c1c(=O)n(C)c(=O)n2C [Example 10, 7-(2-Butynyl)-1,3-dimethyl-8-(piperazin-1-yl)-3,7-dihydropurine-2,6-dione] — lower, 0.5%
- CC#CCn1c(N2CCNCC2)nc2c1c(=O)n(CC(=O)OC)c(=O)n2C [Example 15, [7-(2-Butynyl)-3-methyl-2,6-dioxo-8-(piperazin-1-yl)-2,3,6,7-tetrahydropurin-1-yl]acetic acid methyl ester trifluoroacetate] — lower, -17.2%
- CC#CCn1c(N2CCNCC2)nc2c1c(=O)n(CCOCC)c(=O)n2C [Example 18, 7-(2-Butynyl)-1-(2-ethoxyethyl)-3-methyl-8-(piperazin-1-yl)-3,7-dihydropurine-2,6-dione trifluoroacetate] — higher, 9.5%
- C#CCn1c(=O)c2c(nc(N3CCNCC3)n2CC#CC)n(C)c1=O [Example 19, 7-(2-Butynyl)-3-methyl-8-(piperazin-1-yl)-1-(2-propynyl)-3,7-dihydropurine-2,6-dione trifluoroacetate] — lower, -13.1%
- CC#CCn1c(=O)c2c(nc(N3CCNCC3)n2CC#CC)n(C)c1=O [Example 20, 1,7-Bis(2-butynyl)-3-methyl-8-(piperazin-1-yl)-3,7-dihydropurine-2,6-dione trifluoroacetate] — lower, 5%
- CC#CCn1c(N2CCNCC2)nc2c1c(=O)n(CC#N)c(=O)n2C [Example 21, [7-(2-Butynyl)-3-methyl-2,6-dioxo-8-(piperazin-1-yl)-2,3,6,7-tetrahydropurin-1-yl]acetonitrile trifluoroacetate] — lower, 4.8%
- COc1ccccc1-n1c(N2CCNCC2)nc2c1c(=O)n(C)c(=O)n2C [Example 123, 7-(2-Methoxyphenyl)-1,3-dimethyl-8-(piperazin-1-yl)-3,7-dihydropurine-2,6-dione trifluoroacetate] — higher, 17.9%
- C=Cc1ccccc1-n1c(N2CCNCC2)nc2c1c(=O)n(C)c(=O)n2C [Example 147, 7-(2-Vinylphenyl)-1,3-dimethyl-8-(piperazin-1-yl)-3,7-dihydropurine-2,6-dione trifluoroacetate] — higher, 13%
- Cn1c(=O)[nH]c(=O)c2c1nc(N1CCNCC1)n2-c1ccccc1Cl [Example 156, 7-(2-Chlorophenyl)-3-methyl-8-(piperazin-1-yl)-3,7-dihydropurine-2,6-dione trifluoroacetate] — lower, 0.9%
- COc1ccccc1-n1c(N2CCNCC2)nc2c1c(=O)n(CC#N)c(=O)n2C [Example 166, [7-(2-Methoxyphenyl)-3-methyl-2,6-dioxo-8-(piperazin-1-yl)-2,3,6,7-tetrahydropurin-1-yl]acetonitrile trifluoroacetate] — higher, 16.1%
- C=Cc1ccccc1-n1c(N2CCNCC2)nc2c1c(=O)[nH]c(=O)n2C [Example 174, 7-(2-Vinylphenyl)-3-methyl-8-(piperazin-1-yl)-3,7-dihydropurine-2,6-dione] — lower, -9.1%
- NC(=O)Cn1c(=O)[nH]c(=O)c2c1nc(N1CCNCC1)n2-c1ccccc1Cl [Example 194, 2-[7-(2-Chlorophenyl)-2,6-dioxo-8-(piperazin-1-yl)-1,2,6,7-tetrahydropurin-3-yl]-acetamide trifluoroacetate] — higher, 9.9%
- CC#CCn1c(N2CCNCC2)nc2c1c(=O)n(C)c(=O)n2CC [Example 216, 7-(2-Butynyl)-3-ethyl-1-methyl-8-(piperazin-1-yl)-3,7-dihydropurine-2,6-dione trifluoroacetate] — lower, -5%
- CC#CCn1c(N2CCNCC2)nc2c1c(=O)n(C)c(=O)n2Cc1ccccc1 [Example 218, 7-(2-Butynyl)-3-benzyl-1-methyl-8-(piperazin-1-yl)-3,7-dihydropurine-2,6-dione trifluoroacetate] — higher, 16.8%
- CC#CCn1c(N2CCNCC2)nc2c1c(=O)n(C)c(=O)n2CC(=O)OC [Example 219, [7-(2-Butynyl)-1-methyl-2,6-dioxo-8-(piperazin-1-yl)-1,2,6,7-tetrahydropurin-3-yl]acetic acid methyl ester trifluoroacetate] — lower, -1.4%
- CC#CCn1c(N2CCNCC2)nc2c1c(=O)n(C)c(=O)n2CC1CCCO1 (stereo not drawn) [Example 226, 7-(2-Butynyl)-3-(2-tetrahydrofuranyl)methyl-1-methyl-8-(piperazin-1-yl)-3,7-dihydropurine-2,6-dione trifluoroacetate] — lower, -5.2%
- CC#CCn1c(N2CCNCC2)nc2c1c(=O)n(C)c(=O)n2C(C(=O)OC)c1ccccc1 (stereo not drawn) [Example 240, [7-(2-Butynyl)-1-methyl-2,6-dioxo-8-(piperazin-1-yl)-1,2,6,7-tetrahydropurin-3-yl]phenyl acetic acid methyl ester trifluoroacetate] — lower, -2.8%
- CC#CCn1c(N2CCNCC2)nc2c1c(=O)n(C)c(=O)n2CC(=O)c1ccccc1 [Example 256, 7-(2-Butynyl)-3-(2-oxo-2-phenethyl)-1-methyl-8-(piperazin-1-yl)-3,7-dihydropurine-2,6-dione trifluoroacetate] — lower, 2.4%
- CC#CCn1c(N2CCNCC2)nc2c1c(=O)n(C)c(=O)n2C(C)C(=O)OCC (stereo not drawn) [Example 257, 2-[7-(2-Butynyl)-1-methyl-2,6-dioxo-8-(piperazin-1-yl)-1,2,6,7-tetrahydropurin-3-yl]propionic acid ethyl ester trifluoroacetate] — higher, 10.5%
- CC#CCn1c(N2CCNCC2)nc2c1c(=O)n(C)c(=O)n2C1CCOC1=O (stereo not drawn) [Example 263, 7-(2-Butynyl)-3-(2-oxo-tetrahydrofuran-3-yl)-1-methyl-8-(piperazin-1-yl)-3,7-dihydropurine-2,6-dione trifluoroacetate] — higher, 16.4%
- CC#CCn1c(N2CCNCC2)nc2c1c(=O)n(C)c(=O)n2CCOCC [Example 266, 7-(2-Butynyl)-3-(2-ethoxyethyl)-1-methyl-8-(piperazin-1-yl)-3,7-dihydropurine-2,6-dione trifluoroacetate] — lower, -2.3%
